Laboratory results reported in patent US11707511B2, “Vaccine compositions and methods of using the same” (The Board of Supervisors of Louisiana State University and …, priority 2017, dated 2023).
“Also recorded” adds a separate entry of the source.

Experiments:
[1] = tested on: C. albicans; test: Universal double chimeric peptide vaccines, protection against candidiasis in mouse model; type: in vivo, Candida albicans; settings: Table 11; double peptide vaccine formula feasible for human use
Description: Each chimeric peptide conjugate comprises two peptide epitopes.

[2] = tested on: C. albicans 3153A; test: Passive transfer of mAbs or mAb cocktails i.p. before lethal i.v. challenge, mouse model of human disseminated candidiasis; type: in vivo, Candida albicans; settings: Table 14; for Protection of adsorbed mAb: mAb removed by absorption with Candida cells before transfer; for Protection / Protection (grade word): single mAb, C. albicans
Description: Passive transfer of MAbs by intraperitoneal (i.p.) route. The preventive effect of peptide-specific mAbs listed in Table 3 and Table 4 in naïve mice was examined by passive transfer experiments. […] For testing, mice received 0.5 ml of each mAb or 1 ml of two mAbs in combination (0.5 ml of each) intraperitoneally. […] The negative control materials tested in mice were single mAb or DPBS. Control mice received 0.5 ml of the DPBS diluents or single mAb treatment. For each condition, 6- to 8-week-old female BALB/c mice (NCI) were given 0.5 ml of test mAb, or 1 ml two mAb cocktails or control materials intraperitoneally, followed 4 h later by 0.1 ml intravenously of defined lethal dose of yeast cells per milliliter of DPBS. Mice were divided into groups with five mice each and three independent experiments were carried out. In some experiments, mice were given the same dose of mAbs or control materials on every other day post-challenge for two weeks, as compared to the protective efficacy of mAb in combinations. All mice were sacrificed on day 50. For animal groups that were challenged non-albicans candida species, determined optimal challenge doses were applied for each candida strain.
The hybridoma clones that produce the universal peptide specific mAbs listed above were generated from mice vaccinated with peptide-pulsed dendritic cell (DC) preparation as described previously (6). The isotype of mAb was determined with a Mouse Monoclonal Antibody Isotyping Kit (Pierce, USA). […] In detail, BALB/c mice were given an i.p dose of each mAb four hours before hematogenous challenged with a lethal dose of C. albicans3153A cells. […] Importantly, passive protection was prevented by removal of the mAbs by absorption with Candida cells before transfer, which provided strong additional evidence for the protection being due to the mAb.
The three cell wall proteins were selected because of expression during human candidiasis and cell wall association, and included fructose-bisphosphate aldolase (Fba); methyltetrahydropteroyltriglutamate-homocysteine methyltransferase (Met6); hyphal wall protein-1 (Hwp1). The hybridoma clones listed at Table 5, which produce the peptide specific mAbs, were generated from mice vaccinated with peptide-pulsed dendritic cell (DC) preparation as described previously (6). The isotype of mAb was determined with a Mouse Monoclonal Antibody Isotyping Kit (Pierce, USA). […] Importantly, passive protection was prevented by removal of the mAbs by absorption with Candida cells before transfer, which provided strong additional evidence for the protection being due to the mAb).
The preventive effect of each universal peptide-specific mAb was examined by passive transfer experiments. […] For testing, 5 mice of each tested group received 0.5 ml of each mAb intraperitoneally. The negative control materials tested in mice were mAbs absorbed with C. albicans yeast cells (3153A) and DPBS. Control mice received 0.5 ml of the DPBS diluents or adsorbed mAb solution. For each condition, 6- to 8-week-old female BALB/c mice (NCI) were given 0.5 ml of test mAb, or control materials intraperitoneally, followed 4 h later by 0.1 ml intravenously of a suspension containing lethal dose of Candida cells per milliliter of DPBS. Mice were divided into groups with five mice each and three independent experiments were carried out. We have developed neutropenic murine models of disseminated infection by C. glabrata, C. tropicalis and C. parapsilosis. To induce neutropenia, naïve mice received a 200 mg/kg dose of cyclophosphamide (CY) by i.p. on day −3. Prolonged neutropenia were maintained for 30-50 days by giving each animal a 150 mg/kg dose of CY by i.p. every 10 days after infection.

[3] = tested on: C. auris AR-0386; test: Passive transfer of mAbs or two mAbs in combination in A/J mouse model of invasive C. auris infection; type: in vivo, Candida auris
Description: A. Complement protein C5-defecient A/J mice were treated with one of the five mAb or with DPBS as a vehicle control. The following day, mice were challenged with 1×10^8 C. auris cells/100 ul DPBS dose per mouse. […] B. Fungal burdens in the kidneys (top), heard (center), and brain (bottom).
Identified protective mAbs were obtained by use of standard hybridoma technique and purified by use of protein A/G. A/J mice were given an i.p. dose of either single mAb or two mAbs in combination 24 hours before hematogensous challenge with a lethal dose (2×108) of C. auris AR-0386 live cells. Mice received either 9G2F5 alone or 6H1G8 alone or 9F2G5 and 3H7E3 in combination had 40% survival rate respectively, with prolonged survival as compared to control animals that received DPBS buffer control.
Evaluation and validation of a panel of peptide-specific monoclonal antibodies (mAbs) as a passive immunization strategy protect against invasive C. auris infection in established A/J mouse model of human disease.
The monoclonal antibodies used in this experiment were: • 6H1G8 (IgG2b), α-Hwp1 (Hyphal wall protein) • 3E2G2 (IgG2b), α-Fba (Fructose bisphosphate aldolase) • 10E7E2 (IgG1), α-GPV-P3 (General peptide vaccine 3 from Phosphoglycerate kinase) • 9F2G5 (IgG2a), α-Pgk1 (Phosphoglycerate kinase) • 3H7E3 (IgG1), α-Met6 (Methyltetrahydropteroyltriglutamate)

Molecule: TT947-967-KK-GPV-P3-KK-GPV-M1: double peptide vaccine 7; amidation (C-terminus) and acetylation (N-terminus) (Ac-FNNFTVSFWLRVPKVSASHLEKKCIVIIGGGDTATVAKKKKCFWVNPDCGLKTR-NH2; cysteine pairing not given here)
- Protection against Candidiasis in mouse model [1]: 70-90%
- Protection against Candidiasis in mouse model (grade word) [1]: High

Molecule: TT947-967-GPSL-GPV-M1-GPSL-GPV-P1: double peptide vaccine 3; amidation (C-terminus) and acetylation (N-terminus) (Ac-FNNFTVSFWLRVPKVSASHLEGPSLCFWVNPDCGLKTRGPSLCAILGGSKVSDKI-NH2; cysteine pairing not given here)
- Protection against Candidiasis in mouse model [1]: 40-60%
- Protection against Candidiasis in mouse model (grade word) [1]: medium

Molecule: RGD-GPV-P3-KK-GPV-M2: double peptide vaccine 4; amidation (C-terminus) and acetylation (N-terminus) (Ac-RGDCIVIIGGGDTATVAKKKKCTTTIGSFPQTKDIR-NH2; cysteine pairing not given here)
- Protection against Candidiasis in mouse model [1]: 70-90%
- Protection against Candidiasis in mouse model (grade word) [1]: High

Molecule: TT830-844-GPSL-GPV-M1-GPSL-GPV-P1: double peptide vaccine 2; amidation (C-terminus) and acetylation (N-terminus) (Ac-QYIKANSKFIGITEGPSLCFWVNPDCGLKTRGPSLCAILGGSKVSDKI-NH2; cysteine pairing not given here)
- Protection against Candidiasis in mouse model [1]: 40-60%
- Protection against Candidiasis in mouse model (grade word) [1]: medium

Molecule: RGD-TT947-967-KK-GPV-P3-KK-GPV-M1: double peptide vaccine 9; amidation (C-terminus) and acetylation (N-terminus) (Ac-RGDFNNFTVSFWLRVPKVSASHLEKKCIVIIGGGDTATVAKKKKCFWVNPDCGLKTR-NH2; cysteine pairing not given here)
- Protection against Candidiasis in mouse model [1]: 20-40%
- Protection against Candidiasis in mouse model (grade word) [1]: Low

Molecule: TT830-844-KK-GPV-P3-KK-GPV-M2: double peptide vaccine 6; amidation (C-terminus) and acetylation (N-terminus) (Ac-QYIKANSKFIGITEKKCIVIIGGGDTATVAKKKKCTTTIGSFPQTKDIR-NH2; cysteine pairing not given here)
- Protection against Candidiasis in mouse model [1]: 40-60%
- Protection against Candidiasis in mouse model (grade word) [1]: medium

Molecule: PADRE-GPV-M1-GPSL-GPV-P1: double peptide vaccine 1; amidation (C-terminus) and acetylation (N-terminus) (Ac-AKFVAAWTLKAAACFWVNPDCGLKTRGPSLCAILGGSKVSDKI-NH2; cysteine pairing not given here)
- Protection against Candidiasis in mouse model [1]: 60-90%
- Protection against Candidiasis in mouse model (grade word) [1]: High

Molecule: RGD-TT830-844-KK-GPV-P3-KK-GPV-M1: double peptide vaccine 8; amidation (C-terminus) and acetylation (N-terminus) (Ac-RGDQYIKANSKFIGITEKKCIVIIGGGDTATVAKKKKCFWVNPDCGLKTR-NH2; cysteine pairing not given here)
- Protection against Candidiasis in mouse model [1]: 80-100%
- Protection against Candidiasis in mouse model (grade word) [1]: High

Molecule: PADRE-GPV-M2-KK-GPV-P1: double peptide vaccine 10; amidation (C-terminus) and acetylation (N-terminus) (Ac-AKFVAAWTLKAAACTTTIGSFPQTKDIRKKCAILGGSKVSDKI-NH2; cysteine pairing not given here)
- Protection against Candidiasis in mouse model [1]: 20-40%
- Protection against Candidiasis in mouse model (grade word) [1]: Low

Molecule: RGD-PADRE-GPV-M2-KK-GPV-P3: double peptide vaccine 11; amidation (C-terminus) and acetylation (N-terminus) (Ac-RGDAKFVAAWTLKAAACTTTIGSFPQTKDIRKKCIVIIGGGDTATVAKK-NH2; cysteine pairing not given here)
- Protection against Candidiasis in mouse model [1]: 80-100%
- Protection against Candidiasis in mouse model (grade word) [1]: High

B1: 6H1G8: IgG2b mAb of hybridoma 6H1G8, specific for Hwp1 peptide (antibody)
heavy: EVQLQQSGPELVKPGASVKISCKASGYSITGYYMHWVKQSHVKSLEWIGRINPYTGATSYTQNFKDKASLTVDKSSSTAYMELLSLKSEDSAVYYCAKGGGRSSYWYFDVWGAGTAVTVSSAKTTPPSVYPLAPGCGDTTGSSVTLGCLVKGYFPESVTVTWNSGSLSSSVHTFPALLQSGLYTMSSSVTVPSSTWPSQTVTCSVAHPASSTTVDKKLEPSGPISTINPCPPCKECHKCPAPNLEGGPSVFIFPPNIKDVLMISLTPKVTCVVVDVSEDDPDVQISWFVNNVEVHTAQTQTHREDYNSTIRVVSTLPIQHQDWMSGKEFKCKVNNKDLPSPIERTISKIKGLVRAPQVYILPPPAEQLSRKDVSLTCLVVGFNPGDISVEWTSNGHTEENYKDTAPVLDSDGSYFIYSKLNMKTSKWEKTDSFSCNVRHEGLKNYYLKKTISRSPGK
light: DIQMTQTTSSLSASLGDRVTISCSASQAISNYLNWYQQKPDGTIKLLIYYTSSLHSGVPSRFSGSGSGTDYSLTISNLEPEDIATYYCQQYSKLPWTFGGGTKLEIKRADAAPTVSIFPPSSEQLTSGGASVVCFLNNFYPKDINVKWKIDGSERQNGVLNSWTDQDSKDSTYSMSSTLTLTKDEYERHNSYTCEATHKTSTSPIVKSFNRNEC
- Protection of adsorbed mAb [2]: None
- Protection [2]: (70-80%)
- Protection (grade word) [2]: High
- fungal burdens in targeted organs ([3]; A/J mouse model, in words): lowest fungal burdens in all organs; also recorded: able to almost clear fungal burden
- protection against C. auris invasive infection ([3]; A/J mouse model, in words): protect against C. auris invasive infection; also recorded: best protection
- survival ([3]; FIG. 15A, A/J mice, 1×10^8 C. auris cells, experiment terminated 40 days post challenge): 50%
- fungal burden in the kidneys ([3]; FIG. 15B, one treated mouse): Non-detectible levels of fungal burden
- fungal burden in the heart and brain ([3]; FIG. 15B, several mice): non-detectible levels of fungal burden
- survival rate ([3]; FIG. 16, A/J mice, mAb(s) i.p. 24 hours before lethal dose (2×108) of C. auris AR-0386): 40%

B2: 2D5F7: IgG2b mAb of hybridoma 2D5F7, specific for Fba peptide; VH SEQ ID NO: 68, VL SEQ ID NO: 70 (antibody, V domains shown)
VH: MERHWIFLFLLSVTAGVHSQVQLQQSAAELARPGASVKMSCKASGYTFSSYTMHWVKQRPGQGLEWIGYINPSSGYTDYNQKFKDKTTLTADKSSSTAYMQLSSLTSEDSAVYYCARLYDNYDYYAMDYWGQGTSVTVSS
VL: MDSQAQVLILLLLWVSGTCGDIVMSQSPSSLAVSAGEKVTMSCKSSQSLLNSRIRKNYLAWYQQKPGQSPKLLIYWASTRESGVPDRFTGSGSGTDFTLTISSVQADDLAVYYCKQSYNLLTFGAGTKLELK
- Protection of adsorbed mAb [2]: None
- Protection [2]: (90-100%)
- Protection (grade word) [2]: High
